What all share (type): in vivo
The subject of test [1] is Setaria. The test is described as follows: Herbicidal post-emergence action (Example M). To be noted: greenhouse, 320 g of a.i./ha, about 3 weeks. On the procedure:
(§1) Herbicidal Post-Emergence Action
(§2) Seeds of monocotyledonous and dicotyledonous weed and crop plants are placed into sandy loam in wood fibre pots, covered with soil and cultivated in a greenhouse under good growth conditions. 2-3 weeks after sowing, the test plants are treated at the one-leaf stage. The test compounds, formulated as wettable powders (WP), are, in various dosages with a water application rate of 600 l/ha (converted), with 0.2% of wetting agent added, sprayed onto the green parts of the plants. After the test plants were kept in the greenhouse under optimum growth conditions for about 3 weeks, the effect of the preparations is rated visually in comparison to untreated controls (herbicidal effect in percent (%): 100% effect=the plants have died, 0% effect=like control plants).

A further test has as its system Avena sativa. The test is described as follows: Herbicidal post-emergence action (Example M). To be noted: greenhouse, 320 g of a.i./ha, about 3 weeks. The procedure:
as §1, §2

For test [2], the system named is Lolium. In words: Herbicidal post-emergence action (Example M). Particulars: greenhouse, 320 g of a.i./ha, about 3 weeks. The procedure: as §1, §2
A further test has as its system summer wheat. In words: Herbicidal post-emergence action, vessel trials with cereals in the greenhouse, use of safeners (Example N). Particulars: without safener. On the procedure:
as §1
(§3) Seeds of monocotyledonous and dicotyledonous weed and crop plants are placed into sandy loam in wood fibre pots or in plastic pots, covered with soil and cultivated in a greenhouse, during the vegetation period also outdoors outside of the greenhouse, under good growth conditions. 2-3 weeks after sowing, the test plants are treated at the one- to three-leaf stage. The test compounds, formulated as wettable powders (WP) or emulsifiable concentrates (EC) are, in various dosages with a water application rate of 300 l/ha (converted), with wetting agent (0.2 to 0.3%) added, sprayed onto the plants and the surface of the soil. 3-4 weeks after the treatment of the test plants, the effect of the preparations is rated visually in comparison to untreated controls (herbicidal effect in percent (%): 100% effect=the plants have died, 0% effect=like control plants).
(§4) If it is additionally to be tested as to whether safeners can improve the plant compatibility of test substances in the case of crop plants, the following options are used for applying the safener: • seeds of the crop plants are, before sowing, dressed with the safener substance (the amount of safener is stated in percent, based on the weight of the seed) • before the application of the test substances, the crop plants are sprayed with the safener at a certain application rate per hectare (usually 1 day before the application of the test substances) • the safener is applied together with the test substance as a tank mix (the amount of safener is stated in g/ha or as a ratio, based on the herbicide).
(§5) By comparing the effect of the test substances on crop plants without or with safener treatment, it is possible to assess the effect of the safener substance.
(§6) Vessel Trials with Cereals in the Greenhouse
(§7) Mefenpyr applied 1 day prior to the application of herbicide

A further test deals with Stellaria. The test is described as follows: Herbicidal pre-emergence action (Example L). To be noted: greenhouse, 320 g of a.i./ha, 3 weeks. An excerpt:
(§8) Herbicidal Pre-Emergence Action
(§9) Seeds of monocotyledonous and dicotyledonous weed and crop plants are placed into sandy loam in wood fibre pots and covered with soil. The test compounds, formulated in the form of wettable powders (WP), are then, in various dosages as aqueous suspension with a water application rate of 600 l/ha (converted), with 0.2% of wetting agent added, applied to the surface of the covering soil.
(§10) After the treatment, the pots are placed in a greenhouse and kept under good growth conditions for the test plants. The visual assessment of the emergence damage on the test plants is carried out after a trial period of 3 weeks by comparison with untreated controls (herbicidal effect in percent (%): 100% effect=the plants have died, 0% effect=like control plants).

Test [3] relates to Setaria. The test is described as follows: Herbicidal pre-emergence action (Example L). To be noted: greenhouse, 320 g of a.i./ha, 3 weeks.
Excerpt: as §8, §9, §10

In test [4] the test system is Sinapis. In words: Herbicidal pre-emergence action (Example L). Particulars: greenhouse, 320 g of a.i./ha, 3 weeks.
Excerpt: as §8, §9, §10

In test [5] the test system is Lolium. In words: Herbicidal pre-emergence action (Example L). To be noted: greenhouse, 320 g of a.i./ha, 3 weeks.
Excerpt: as §8, §9, §10

For test [6], the system named is Sinapis. In words: Herbicidal post-emergence action (Example M). Particulars: greenhouse, 320 g of a.i./ha, about 3 weeks. The procedure: as §1, §2
Another test relates to summer barley. The test is described as follows: Herbicidal post-emergence action, vessel trials with cereals in the greenhouse, use of safeners (Example N). Particulars: without safener. On the procedure: as §1, §3, §4, §5, §6, §7
The next test deals with Myzus persicae. The test is described as follows: Myzus test (spray treatment). Particulars: 100 g/ha, Chinese cabbage discs. On the procedure:
Myzus Test (Spray Treatment)
To produce a suitable preparation of active compound, 1 part by weight of active compound is mixed with the stated amounts of solvent and emulsifier, and the concentrate is diluted with emulsifier-containing water to the desired concentration.
Discs of Chinese cabbage (Brassica pekinensis), which are infested by all stages of the green peach aphid (Myzus persicae), are sprayed with a preparation of active compound of the desired concentration.
After the desired period of time, the effect in % is determined. 100% means that all aphids have been killed; 0% means that none of the aphids have been killed.

The subject of the next test is Tetranychus urticae. The test is described as follows: Tetranychus test (OP-resistant/spray treatment). Particulars: 100 g/ha; spray treatment; bean leaf discs. On the procedure: Tetranychus Test (OP-Resistant/Spray Treatment)
To produce a suitable preparation of active compound, 1 part by weight of active compound is mixed with the stated amounts of solvents and emulsifier, and the concentrate is diluted with emulsifier-containing water to the desired concentration.
Discs of bean leaves (Phaseolus vulgaris) which are infested by all stages of the greenhouse red spider mite (Tetranychus urticae) are sprayed with a preparation of active compound of the desired concentration.
After the desired period of time, the activity in % is determined. 100% means that all spider mites have been killed; 0% means that none of the spider mites have been killed.

A further test deals with Amaranthus. In words: Herbicidal pre-emergence action (Example L). Particulars: greenhouse, 320 g of a.i./ha, 3 weeks.
Excerpt: as §8, §9, §10

Turning to `CCc1cc(C)cc(Br)c1C1=C(OC(=O)C(C)C)C2(CCCCC2)NC1=O` [Example I-b-3], the “herbicidal effect in percent, Setaria” value with Setaria [1] turned out to be 100%. Moreover, the “herbicidal effect in percent, Avena sativa” value in the test with Avena sativa came to 100%. Moreover, in the test on Lolium [2], the “herbicidal effect in percent, Lolium” value was determined as 90%. Besides, the entries for the “summer wheat observed (%)” value in the test with summer wheat (12.5 g of a.i./ha), in the test with summer wheat (25 g of a.i./ha) and with summer wheat (50 g of a.i./ha) were 10%, 20% and 75%, respectively.

As to `CCc1cc(C)cc(Br)c1C1=C(OC(=O)C(C)(C)C)C2(CCCCC2)NC1=O` [I-b-4], the “herbicidal effect in percent, Setaria” value with Setaria [1] is listed as 90%. In addition, the “herbicidal effect in percent, Avena sativa” value with Avena sativa came to 80%. Also, the “herbicidal effect in percent, Lolium” value in the test with Lolium [2] is listed as 90%.

Turning to `CCOC(=O)OC1=C(c2c(Cl)cc(C)cc2CC)C(=O)NC12CCC(OC)CC2` (single isomer, unassigned) [Example I-c-4], the “herbicidal effect in percent, Stellaria” value in the test on Stellaria came to 80%. In addition, the “herbicidal effect in percent, Setaria” value in the test with Setaria [3] worked out at 90%; in the test with Setaria [1], 100%. For the same compound, the “herbicidal effect in percent, Sinapis” value in the test with Sinapis [4] is 70%; in the test on Sinapis [6], 80%. The “herbicidal effect in percent, Lolium” value with Lolium [5] amounted to 80%; with Lolium [2], 100%. In addition, the “herbicidal effect in percent, Avena sativa” value in the test on Avena sativa is 100%. Also, the “summer barley observed (%)” value turned out to be 20% in the test on summer barley (12.5 g of a.i./ha) and 70% with summer barley (25 g of a.i./ha). In addition, the “summer wheat observed (%)” value with summer wheat (12.5 g of a.i./ha) was 60%.

On to `CCOC(=O)OC1=C(c2c(Br)cc(C)cc2CC)C(=O)NC12CCCCC2` [I-c-2], for which the “herbicidal effect in percent, Setaria” value in the test with Setaria [1] was found to be 80%. Also, in the test on Avena sativa, the “herbicidal effect in percent, Avena sativa” value is 90%. In the test on Lolium [2], the “herbicidal effect in percent, Lolium” value was 90%.

In the case of `CCc1cc(C)cc(Br)c1C1=C(O)C2(CCCCC2)NC1=O` [I-a-2], in the test with Setaria [1], the “herbicidal effect in percent, Setaria” value stood at 100%. Moreover, the “herbicidal effect in percent, Avena sativa” value in the test on Avena sativa came to 80%. For the same compound, the “herbicidal effect in percent, Lolium” value in the test on Lolium [2] is 90%.

For `CCc1cc(C)cc(Br)c1C1=C(OC(=O)COC)C2(CCCCC2)NC1=O` [Example I-b-2], in the test with Setaria [1], the “herbicidal effect in percent, Setaria” value was 100%. Also, in the test on Avena sativa, the “herbicidal effect in percent, Avena sativa” value is given as 90%. For the same compound, the “herbicidal effect in percent, Lolium” value in the test with Lolium [2] came out at 100%. For the same compound, the “summer wheat observed (%)” value in the test on summer wheat (12.5 g of a.i./ha) is given as 20%; in the test on summer wheat (25 g of a.i./ha), 70%; with summer wheat (50 g of a.i./ha), 98%.

For `CCc1cc(C)cc(Br)c1C1=C(OC(=O)COC)C2(CCC(OC)CC2)NC1=O` (single isomer, unassigned) [Example I-b-5], the “Kill rate in % after 5d” value came out at 80% with Myzus persicae and 70% in the test on Tetranychus urticae. The “herbicidal effect in percent, Setaria” value is 90% in the test with Setaria [3] and 100% with Setaria [1]. In addition, the “herbicidal effect in percent, Sinapis” value was found to be 80% in the test on Sinapis [4] and 70% in the test on Sinapis [6]. Besides, the “herbicidal effect in percent, Lolium” value in the test with Lolium [5] and with Lolium [2] was 100% throughout. In addition, the “herbicidal effect in percent, Avena sativa” value with Avena sativa was 100%. For the same compound, the “summer barley observed (%)” value is 35% in the test with summer barley (12.5 g of a.i./ha), 65% with summer barley (25 g of a.i./ha) and 98% in the test on summer barley (50 g of a.i./ha).

Take `CCOC(=O)OC1=C(c2c(Br)cc(C)cc2CC)C(=O)NC12CCC(OC)CC2` (single isomer, unassigned) [I-c-3]: the “Kill rate in % after 5d” value with Myzus persicae and in the test on Tetranychus urticae was 80% in each case. For the same compound, the “herbicidal effect in percent, Amaranthus” value in the test on Amaranthus was found to be 100%. Moreover, the “herbicidal effect in percent, Setaria” value in the test with Setaria [3] and with Setaria [1] was 100% each time. The “herbicidal effect in percent, Lolium” value with Lolium [5] and in the test on Lolium [2] was 100% each time. Also, in the test on Avena sativa, the “herbicidal effect in percent, Avena sativa” value is given as 100%. Moreover, the “herbicidal effect in percent, Sinapis” value with Sinapis [6] came out at 70%.

The record behind these values is patent US20070129252A1, “2-Halo-6-alkylphenyl-substituted spirocyclic tetramic acid derivatives” (BAYER CROPSCIENCE AKTIENGESELLSCHAFT, priority 2003, published 2007).
